Laboratory results published in patent publication US20260364214A1, “MULTIVALENT FIBROBLAST ACTIVATION PROTEIN LIGANDS FOR TARGETED DELIVERY APPLICATIONS” (Philochem AG, priority 2022, published 2026).

Assays:
[1] = test system: SK-RC-52.hFAP tumors; experiment: Quantitative biodistribution in SK-RC-52.hFAP tumor bearing mice; type: in vivo, mouse (female athymic Balb/c AnNRj-Foxn1); conditions: i.v. 250 nmol/kg, 50 MBq/kg
How it was run: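 Female athymic Balb/c nude mice carried subcutaneous SK-RC-52.hFAP tumors (5 million cells, ~300 mm^3). 177Lu-labeled conjugates were given i.v. at 250 nmol/kg, 50 MBq/kg. Tissues gamma-counted at several time points as %ID/g±SD, tumor values corrected for growth rate; tumor-to-organ ratios derived.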

[2] = Tolerability (body weight change) of 177Lu conjugates; type: in vivo, mouse (athymic Balb/c AnNRj-Foxn1); conditions: single administration, 250 nmol/kg, 250 MBq/kg
Experimental: The anti-cancer efficacy of ^177Lu-ESV6, ^177Lu-Bi-ESV6 and ^177Lu-Tri-ESV6 was assessed in athymic Balb/c AnNRj-Foxn1 mice bearing SK-RC-52.hFAP tumor in the right flank. ^177Lu-ESV6, ^177Lu-Bi-ESV6 or ^177Lu-Tri-ESV6 were intravenously administered at a dose of 250 nmol/kg, 250 MBq/kg (single administration on day 9 after tumor implantation). Therapy experiments started when the average volume of established tumors had reached 100-150 mm^3. Body weight of the animals and tumor volume were daily measured and recorded. Tumor dimensions were measured with an electronic caliper and tumor volume was calculated with the formula (long side, mm)×(short side, mm)×(short side, mm)×0.5. Animals were euthanized when one or more termination criterium indicated by the experimental license was reached. Prism 7 software (GraphPad Software) was used for data analysis.

N#C[C@@H]1CC(F)(F)CN1C(=O)CNC(=O)c1ccnc2c(NC(=O)CCC(=O)NCCNC(=O)CCC(C(=O)O)N3CCN(CC(=O)[O-])CCN(CC(=O)[O-])CCN(CC(=O)[O-])CC3)cccc12.[177Lu+3] (stereo partly shown) [^177Lu-ESV6-DOTAGA, reference compound]
Tumor to organs ratio, Blood ([1]; 24 h): 628.54
Injected dose per gram, Blood ([1]; 24 h post injection): 0.00 % ID/g
Tumor to organs ratio, Blood ([1]; 48 h): 2173.00
Injected dose per gram, Blood ([1]; 48 h post injection): 0.00 % ID/g
Tumor to organs ratio, Heart ([1]; 24 h): 497.97
Injected dose per gram, Heart ([1]; 24 h post injection): 0.01 % ID/g
Tumor to organs ratio, Heart ([1]; 48 h): 314.15
Injected dose per gram, Heart ([1]; 48 h post injection): 0.00 % ID/g
Tumor to organs ratio, Intestine ([1]; 24 h): 240.54
Injected dose per gram, Intestine ([1]; 24 h post injection): 0.01 % ID/g
Tumor to organs ratio, Intestine ([1]; 48 h): 232.61
Injected dose per gram, Intestine ([1]; 48 h post injection): 0.01 % ID/g
Tumor to organs ratio, Kidney ([1]; 24 h): 5.41
Injected dose per gram, Kidney ([1]; 24 h post injection): 0.47 % ID/g
Tumor to organs ratio, Kidney ([1]; 48 h): 4.22
Injected dose per gram, Kidney ([1]; 48 h post injection): 0.28 % ID/g
Tumor to organs ratio, Liver ([1]; 24 h): 37.66
Injected dose per gram, Liver ([1]; 24 h post injection): 0.07 % ID/g
Tumor to organs ratio, Liver ([1]; 48 h): 20.54
Injected dose per gram, Liver ([1]; 48 h post injection): 0.06 % ID/g
Tumor to organs ratio, Lung ([1]; 24 h): 977.01
Injected dose per gram, Lung ([1]; 24 h post injection): 0.01 % ID/g
Tumor to organs ratio, Lung ([1]; 48 h): 805.04
Injected dose per gram, Lung ([1]; 48 h post injection): 0.01 % ID/g
Tumor to organs ratio, Muscle ([1]; 24 h): 159.12
Injected dose per gram, Muscle ([1]; 24 h post injection): 0.03 % ID/g
Tumor to organs ratio, Muscle ([1]; 48 h): 142.88
Injected dose per gram, Muscle ([1]; 48 h post injection): 0.01 % ID/g
Tumor to organs ratio, Spleen ([1]; 24 h): 158.68
Injected dose per gram, Spleen ([1]; 24 h post injection): 0.03 % ID/g
Tumor to organs ratio, Spleen ([1]; 48 h): 503.00
Injected dose per gram, Spleen ([1]; 48 h post injection): 0.01 % ID/g
Tumor to organs ratio, Tail ([1]; 24 h): 48.95
Injected dose per gram, Tail ([1]; 24 h post injection): 0.05 % ID/g
Tumor to organs ratio, Tail ([1]; 48 h): 45.61
Injected dose per gram, Tail ([1]; 48 h post injection): 0.03 % ID/g
Injected dose per gram, Tumor ([1]; 24 h post injection): 2.53 % ID/g
Injected dose per gram, Tumor ([1]; 48 h post injection): 1.19 % ID/g
tolerability (body weight change), in words [2]: very well tolerated

N#CC1CC(F)(F)CN1C(=O)CNC(=O)c1ccnc2c(NC(=O)CCC(=O)NCCCCC(NC(=O)CCC(=O)Nc3cccc4c(C(=O)NCC(=O)N5CC(F)(F)CC5C#N)ccnc34)C(=O)NCCNC(=O)CCC(C(=O)O)N3CCN(CC(=O)[O-])CCN(CC(=O)[O-])CCN(CC(=O)[O-])CC3)cccc12.[177Lu+3] (stereo not shown) [^177Lu-Bi-ESV6-DOTAGA, reference compound]
Tumor to organs ratio, Blood ([1]; 24 h): 270.81
Injected dose per gram, Blood ([1]; 24 h post injection): 0.05 % ID/g
Tumor to organs ratio, Blood ([1]; 48 h): 4240.99
Injected dose per gram, Blood ([1]; 48 h post injection): 0.00 % ID/g
Tumor to organs ratio, Blood ([1]; 72 h): 2515.44
Injected dose per gram, Blood ([1]; 72 h post injection): 0.00 % ID/g
Tumor to organs ratio, Heart ([1]; 24 h): 342.92
Injected dose per gram, Heart ([1]; 24 h post injection): 0.05 % ID/g
Tumor to organs ratio, Heart ([1]; 48 h): 1206.24
Injected dose per gram, Heart ([1]; 48 h post injection): 0.01 % ID/g
Tumor to organs ratio, Heart ([1]; 72 h): 203.58
Injected dose per gram, Heart ([1]; 72 h post injection): 0.04 % ID/g
Tumor to organs ratio, Intestine ([1]; 24 h): 298.43
Injected dose per gram, Intestine ([1]; 24 h post injection): 0.05 % ID/g
Tumor to organs ratio, Intestine ([1]; 48 h): 458.76
Injected dose per gram, Intestine ([1]; 48 h post injection): 0.03 % ID/g
Tumor to organs ratio, Intestine ([1]; 72 h): 544.57
Injected dose per gram, Intestine ([1]; 72 h post injection): 0.06 % ID/g
Tumor to organs ratio, Kidney ([1]; 24 h): 14.96
Injected dose per gram, Kidney ([1]; 24 h post injection): 0.96 % ID/g
Tumor to organs ratio, Kidney ([1]; 48 h): 17.41
Injected dose per gram, Kidney ([1]; 48 h post injection): 0.47 % ID/g
Tumor to organs ratio, Kidney ([1]; 72 h): 12.21
Injected dose per gram, Kidney ([1]; 72 h post injection): 0.66 % ID/g
Tumor to organs ratio, Liver ([1]; 24 h): 48.81
Injected dose per gram, Liver ([1]; 24 h post injection): 0.29 % ID/g
Tumor to organs ratio, Liver ([1]; 48 h): 51.30
Injected dose per gram, Liver ([1]; 48 h post injection): 0.16 % ID/g
Tumor to organs ratio, Liver ([1]; 72 h): 28.14
Injected dose per gram, Liver ([1]; 72 h post injection): 0.29 % ID/g
Tumor to organs ratio, Lung ([1]; 24 h): 184.57
Injected dose per gram, Lung ([1]; 24 h post injection): 0.08 % ID/g
Tumor to organs ratio, Lung ([1]; 48 h): 300.13
Injected dose per gram, Lung ([1]; 48 h post injection): 0.03 % ID/g
Tumor to organs ratio, Lung ([1]; 72 h): 517.13
Injected dose per gram, Lung ([1]; 72 h post injection): 0.06 % ID/g
Tumor to organs ratio, Muscle ([1]; 24 h): 135.38
Injected dose per gram, Muscle ([1]; 24 h post injection): 0.12 % ID/g
Tumor to organs ratio, Muscle ([1]; 48 h): 270.58
Injected dose per gram, Muscle ([1]; 48 h post injection): 0.05 % ID/g
Tumor to organs ratio, Muscle ([1]; 72 h): 140.83
Injected dose per gram, Muscle ([1]; 72 h post injection): 0.08 % ID/g
Tumor to organs ratio, Spleen ([1]; 24 h): 125.34
Injected dose per gram, Spleen ([1]; 24 h post injection): 0.11 % ID/g
Tumor to organs ratio, Spleen ([1]; 48 h): 133.66
Injected dose per gram, Spleen ([1]; 48 h post injection): 0.07 % ID/g
Tumor to organs ratio, Spleen ([1]; 72 h): 61.08
Injected dose per gram, Spleen ([1]; 72 h post injection): 0.14 % ID/g
Tumor to organs ratio, Tail ([1]; 24 h): 69.69
Injected dose per gram, Tail ([1]; 24 h post injection): 0.22 % ID/g
Tumor to organs ratio, Tail ([1]; 48 h): 187.42
Injected dose per gram, Tail ([1]; 48 h post injection): 0.07 % ID/g
Tumor to organs ratio, Tail ([1]; 72 h): 64.13
Injected dose per gram, Tail ([1]; 72 h post injection): 0.12 % ID/g
Injected dose per gram, Tumor ([1]; 24 h post injection): 14.29 % ID/g
Injected dose per gram, Tumor ([1]; 48 h post injection): 8.10 % ID/g
Injected dose per gram, Tumor ([1]; 72 h post injection): 8.00 % ID/g
tolerability (body weight change), in words [2]: very well tolerated
